In US4724259A, “Azo dyes and liquid-crystalline materials containing these dyes” (BASF Aktiengesellschaft, priority 1983, dated 1988):

How the values were obtained:
Format in all cases: physicochemical
[1] = Degree of order S in nematic broad-range mixture (dichroic ratio, homogeneous edge orientation, ground PVA cells); conditions: room temperature
Experimental: The degree of order S was determined using the conventional equation [formula] the measurement being carried out in commercial measuring cells with a homogeneous edge orientation (ground PVA). The dichroic ratio CR was determined by measuring the extinctions E" (measurement with light polarized parallel to the preferred direction of the nematic phase) and E^.perp. (measurement with light polarized perpendicular to the preferred direction of the nematic phase) and using the relationship CR=E"/E^.perp. the dye concentration being chosen so that E" was from 1 to 2. The measurements were carried out in a Beckmann Acta CIII spectrophotometer.

[2] = Solubility L in liquid crystal mixture (saturated solution, comparison of extinction); conditions: room temperature, percentages by weight unless stated otherwise
[3] = Light stability: high-speed exposure of the measuring cell in a Suntest from Hanau; conditions: 25° C., at the stated λmax
Experimental: The light stability was determined by high-speed exposure of the measuring cell in a Suntest from Hanau, at 25° C. In this procedure, the decrease in E" was measured. […] E" was determined at the stated λmax values.

[4] = ZLI 1840 (Merck), 1 week stirring

| SMILES | Degree of order S ([1]; ZLI 1840 (Merck)) | Solubility L [2, 4] [%] | E80% " (exposure time after which E"o has decreased to 80%) [3] [h] | Eo " (initial extinction) [3] | Degree of order S ([1]; ZLI 1957/5 (Merck)) | Solubility L ([2]; ZLI 1957/5 (Merck)) [%] |
| --- | --- | --- | --- | --- | --- | --- |
| Cc1cc(O)ccc1N=Nc1ccc(N=Nc2ccc(N=Nc3ccc(OCc4ccccc4)cc3C)cc2)cc1 [Example 1, 4-(2-methyl-4-hydroxyphenylazo)-4'-(2-methyl-4-benzyloxyphenylazo)-azobenzene] | 0.75 | 0.9 | – | – | – | – |
| Cc1cc(C)c(COc2ccc(N=Nc3ccc(N=Nc4ccc(N=Nc5ccc(OCc6c(C)cc(C)cc6C)cc5C)cc4)cc3)c(C)c2)c(C)c1 [Example 3] | 0.77 | 1.0 | 110 | 1.95 | – | – |
| Cc1cc(OCc2ccc(C(C)(C)C)cc2)ccc1N=Nc1ccc(N=Nc2ccc(N=Nc3ccc(OCc4ccc(C(C)(C)C)cc4)cc3C)cc2)cc1 [Example 4] | 0.75 | 0.3 | – | – | – | – |
| CCCCCC1CCC(c2ccc(COc3ccc(N=Nc4ccc(N=Nc5ccc(N=Nc6ccc(O)cc6C)cc5)cc4)c(C)c3)cc2)CC1 (centres unmarked) [Example 5] | 0.79 | 1.9 | 70 | 1.23 | – | – |
| CCCCC1CCC(c2ccc(COc3ccc(N=Nc4ccc(N=Nc5ccc(N=Nc6ccc(OCc7ccc(C8CCC(CCCC)CC8)cc7)cc6C)cc5)cc4)c(C)c3)cc2)CC1 (centres unmarked) [Example 8] | 0.79 | 0.3 | – | – | – | – |

The next lines start with the values.

| Degree of order S ([1]; ZLI 1840 (Merck)) | Solubility L [2, 4] [%] | E80% " (exposure time after which E"o has decreased to 80%) [3] [h] | Eo " (initial extinction) [3] | Degree of order S ([1]; ZLI 1957/5 (Merck)) | Solubility L ([2]; ZLI 1957/5 (Merck)) [%] | SMILES |
| --- | --- | --- | --- | --- | --- | --- |
| 0.81 | 0.8 | 140 | 1.51 | – | – | CCCCCC1CCC(c2ccc(COc3ccc(N=Nc4ccc(N=Nc5ccc(N=Nc6ccc(OCc7ccc(C8CCC(CCCCC)CC8)cc7)cc6C)cc5)cc4)c(C)c3)cc2)CC1 (centres unmarked) [Example 9] |
| – | – | – | – | 0.81 | 1.2 | CCCCCc1ccc(COc2ccc(N=Nc3ccc(N=Nc4ccc(N=Nc5ccc(OCc6ccc(CCCCC)cc6)cc5C)cc4)cc3)c(C)c2)cc1 [Example 10] |
| – | – | – | – | 0.76 | 0.7 | Cc1cc(OCc2cc(C(C)(C)C)cc(C(C)(C)C)c2)ccc1N=Nc1ccc(N=Nc2ccc(N=Nc3ccc(OCc4cc(C(C)(C)C)cc(C(C)(C)C)c4)cc3C)cc2)cc1 [Example 11] |
| – | – | – | – | 0.80 | 3 | CCCCCc1ccc(COc2cc(C)c(N=Nc3ccc(N=Nc4ccc(N=Nc5c(C)cc(OCc6ccc(CCCCC)cc6)cc5C)cc4)cc3)c(C)c2)cc1 [Example 16] |
| – | – | – | – | 0.81 | 0.2 | CCCCCC1CCC(c2ccc(COc3cc(C)c(N=Nc4ccc(N=Nc5ccc(N=Nc6c(C)cc(OCc7ccc(C8CCC(CCCCC)CC8)cc7)cc6C)cc5)cc4)c(C)c3)cc2)CC1 (centres unmarked) [Example 17] |
